Converted amounts (≈) assume the structure as drawn. Where two headings read alike, the source gives them in different places.
How the values were obtained:
[1] = tested on: Cryptosporidium parvum (CP); assay: Cell culture model of Cryptosporidium parvum infection in HCT-8 cells, real-time qRT-PCR; type: cell-based; settings: for inhibition at 0.056 µM: HCT-8, @0.056 uM
Experimental: Fresh oocysts of CP (Iowa strain) were purchased from Bunch Grass Farm (Deary, Id.). Oocysts were further purified by a Percoll-based gradient centrifugation method and surface sterilized with 10% bleach for 7 min on ice, followed by washes with phosphate-buffered saline (PBS). An ileocecal colorectal adenocarcinoma cell line (HCT-8, ATCC #CCL-244) was used to host the growth of CP in vitro. One day before the inoculation, HCT-8 cells were seeded in 96-well plates (2.5×10^4/well) containing RPMI 1640 medium supplied with 10% fetal bovine serum (200 μL medium/well in all experiments) and allowed to grow overnight at 37° C. under 5% CO2 atmosphere until they reached ˜90% confluence. For drug testing, host cells were infected with 1.5×10^4 oocysts per well (ratio ˜1:3). After inoculation, parasite oocysts were allowed to undergo excystation and invasion into host cells for 3 h at 37° C. Free parasites and oocyst walls in the medium were removed from the plates by an exchange of the culture medium. Drugs at specified concentrations were added into the culture at this time point (immediately after the medium exchange). Parasite-infected cells were then incubated at 37° C. for additional 41 h (total 44 h infection time). At least two independent experiments were conducted for every experimental condition, each including two replicates drugs and eight replicates for negative controls.
Plates containing HCT-8 cells infected with CP for 44 h were first centrifuged for 10 min at 1000×g to ensure that free merozoites in the medium were firmly settled on the bottom of the wells. Medium was removed, followed by two gentle washes with PBS. For extracting total RNA, 200 μL of ice-cold Bio-Rad iScript qRT-PCR sample preparation reagent (lysis buffer) (Bio-Rad Laboratories, Hercules, Calif.) was added into each well. Plates were sealed with heat sealing films and subjected to vortex for 20 min. Plates were then incubated at 75° C. for 15 min, followed by centrifugation (5 min, 2000×g) to settle down cell debris. Supernatants were used immediately in subsequent qRT-PCR reactions or the plates were stored at −80° C. until use.
The levels of 18S rRNA transcripts from CP and host cells (referred to as Cp18S and Hs18S) were detected by real-time qRT-PCR method using qScrip™ one-step SYBR green qRT-PCR kit (Quanta Biosciences, Gaithersburg, Md.). Cell lysates prepared as described above were diluted by 100 and 2000 folds for detecting Cp18S and Hs18S transcripts, respectively. Reactions were performed in hard-shell 384-well skirted PCR plates (Bio-Rad Laboratories, Hercules, Calif.) (10 μL/well) containing 3 μL diluted cell lysate, 5 μL one-step SYBR green master mix, 0.2 μl RT master mix and the following primers: Cp18S-1011F and Cp18S-1185R primer pair for Cp18S rRNA, and Hs18S-1F and Hs18S-1R primer pair for Hs18S rRNA. Hs18S levels were used as controls and for normalization.
Real-time qRT-PCR reactions were performed by a Bio-Rad CFX384 Touch Real-Time PCR Detection System. The reactions started with synthesizing cDNA at 50° C. for 20 min, followed by 5 min at 95° C. to denature RNA-cDNA hybrids and deactivate reverse transcriptase, and 40 two-temperature thermal cycles of PCR amplification at 95° C., 10 sec and 58° C., 30 sec. At the end of PCR amplification, melting curve analysis was performed between 65° C. to 95° C. At least 2 technical replicates were included in qRT-PCR reactions for each sample.
The % inhibition (% inh @ (μM)) was calculated using a standard curve.

S. cerevisiae = assay: in vitro; settings: Saccharomyces cerevisiae
human fibroblast = assay: in vitro; settings: human
[2] = Cryptosporidium parvum, 44 h, CP in HCT-8 cells, 44 h infection, 50% reduction of parasite growth vs control, NA: not active, read-out: MIC50
[3] = CP in HCT-8 cells, 44 h infection, 50% reduction of parasite growth vs control, NA: not active, read-out: MIC50

Compound `CC(C(=O)N1CCN(C)CC1)c1ccc(Oc2nc3ccc(Cl)cc3s2)cc1` (single isomer, unassigned) [NZ-366 (peak 1), 2-{4-[(6-chloro-1,3-benzothiazol-2-yl)oxy]phenyl}-1-(4-methylpiperazin-1-yl)propan-1-one] has an MIC50 [1, 2] of less than 0.05 µM and an inhibition at 0.05 µM ([1]; Cryptosporidium parvum, HCT-8, @0.05 uM, read-out: % inh @) of 85%.

For `CC(C(=O)N1CCN(C)CC1)c1ccc(Oc2nc3ccc(Cl)cc3s2)cc1` (single isomer, unassigned) [NZ-366 (peak 2), 2-{4-[(6-chloro-1,3-benzothiazol-2-yl)oxy]phenyl}-1-(4-methylpiperazin-1-yl)propan-1-one], the “% inh @ (μM)” value ([1]; @0.05 uM) was 81% @0.05 uM and the MIC50 [1, 3] was less than 0.05 µM.

`CNC(=O)C(C)c1ccc(Oc2nc3ccc(Cl)cc3s2)cc1` (single isomer, unassigned) [NZ-369 (peak 1), 2-{4-[(6-chloro-1,3-benzothiazol-2-yl)oxy]phenyl}-N-methylpropanamide] gave an MIC50 [1, 3] of 0.07 µM (≈ 0.0243 µg/mL).

For `CNC(=O)C(C)c1ccc(Oc2nc3ccc(Cl)cc3s2)cc1` (single isomer, unassigned) [NZ-369 (peak 2), 2-{4-[(6-chloro-1,3-benzothiazol-2-yl)oxy]phenyl}-N-methylpropanamide], the “MIC50” value ([1]; CP in HCT-8 cells, 44 h infection, 50% reduction of parasite growth vs control, NA: not active) was roughly 0.02 µM (≈ 0.00694 µg/mL).

`CS(=O)(=O)NC(=O)COc1ccc(Oc2cnc3cc(Cl)ccc3n2)cc1` [NZ-259, 2-{4-[(6-chloroquinoxalin-2-yl)oxy]phenoxy}-N-methanesulfonylacetamide] showed an MIC50 [1, 2] greater than 10 µM and an inhibition at 10 µM ([1]; Cryptosporidium parvum, HCT-8, @10 uM, read-out: % inh @) of 33%.

`C[C@@H](Oc1ccc(Oc2nc3ccc([N+](=O)[O-])cc3s2)cc1)C(=O)O` [NZ-261, (2R)-2-{4-[(6-nitro-1,3-benzothiazol-2-yl)oxy]phenoxy}propanoic acid] gave an MIC50 ([1]; Cryptosporidium parvum, 44 h) of roughly 10 µM (≈ 3.6 µg/mL) and an inhibition at 10 µM ([1]; Cryptosporidium parvum, HCT-8, read-out: % inh @ (μM)) of 60%.

In the case of `CN1CCN(C(=O)COc2ccc(Oc3cnc4cc(Cl)ccc4n3)cc2)CC1` [NZ-278, 2-{4-[(6-chloroquinoxalin-2-yl)oxy]phenoxy}-1-(4-methylpiperazin-1-yl)ethan-1-one], the MIC50 ([1]; Cryptosporidium parvum, 44 h) is reported as roughly 0.25 µM (≈ 0.103 µg/mL).

For `CC(C(=O)N1CCN(C2CC2)CC1)c1ccc(Oc2nc3ccc(Cl)cc3s2)cc1` (stereo not shown) [NZ-511, 2-{4-[(6-chloro-1,3-benzothiazol-2-yl)oxy]phenyl}-1-(4-cyclopropylpiperazin-1-yl)propan-1-one], the “concentrations at which not toxic, S. cerevisiae cytotoxicity testing” value (S. cerevisiae) was no less than 100 µM and the “concentrations at which not toxic, human fibroblast cytotoxicity testing” value (human fibroblast) was no less than 100 µM.

For `CC(C(=O)N1CCN(CC(F)(F)F)CC1)c1ccc(Oc2nc3ccc(Cl)cc3s2)cc1` (stereo not shown) [NZ-512], the “concentrations at which not toxic, S. cerevisiae cytotoxicity testing” value (S. cerevisiae) was no less than 100 µM and the “concentrations at which not toxic, human fibroblast cytotoxicity testing” value (human fibroblast) was no less than 100 µM.

`CC(C(=O)N1CCN(C2COC2)CC1)c1ccc(Oc2nc3ccc(Cl)cc3s2)cc1` (stereo not shown) [NZ-513, 2-{4-[(6-chloro-1,3-benzothiazol-2-yl)oxy]phenyl}-1-[4-(oxetan-3-yl)piperazin-1-yl]propan-1-one] was tested, and the “concentrations at which not toxic, S. cerevisiae cytotoxicity testing” value (S. cerevisiae) was no less than 100 µM and the “concentrations at which not toxic, human fibroblast cytotoxicity testing” value (human fibroblast) was no less than 100 µM.

In the case of `CC(C(=O)NCCN)c1ccc(Oc2nc3ccc(Cl)cc3s2)cc1` (stereo not shown) [NZ-518, N-(2-aminoethyl)-2-{4-([6-chloro-1,3-benzothiazol-2-yl)oxy]phenyl}propanamide], the MIC50 [1, 2] is reported as greater than 0.45 µM.

Work on `CNC(=O)C1(c2ccc(Oc3nc4ccc(Cl)cc4s3)cc2)CC1` [NZ-521, 1-{4-[(6-chloro-1,3-benzothiazol-2-yl)oxy]phenyl}-N-methylcyclopropane-1-carboxamide] yielded an MIC50 [1, 2] of 0.25 µM (≈ 0.0897 µg/mL).

With `CN1CCN(C(=O)C2(c3ccc(Oc4nc5ccc(Cl)cc5s4)cc3)CC2)CC1` [NZ-522, 6-chloro-2-{4-[1-(4-methylpiperazine-1-carbonyl)cyclopropyl]phenoxy}-1,3-benzothiazole] the MIC50 [1, 2] was 0.022 to 0.045 µM (≈ 0.00942 to 0.0193 µg/mL).

`CC(C(=O)N1CCOCC1)c1ccc(Oc2cnc3cc(Cl)ccc3n2)cc1` (stereo not shown) [NZ-529, 2-{4-[(6-chloroquinoxalin-2-yl)oxy]phenyl}-1-(morpholin-4-yl)propan-1-one] was tested, and the MIC50 [1, 2] was greater than 0.45 µM.

`CC(C(=O)N(C)C)c1ccc(Oc2cnc3cc(Cl)ccc3n2)cc1` (stereo not shown) [NZ-530, 2-{4-([6-chloroquinoxalin-2-yl)oxy]phenyl}-N,N-dimethylpropanamide] was tested, and the MIC50 [1, 2] was roughly 0.225 µM (≈ 0.0801 µg/mL).

For `CC(C(=O)NCC(O)CO)c1ccc(Oc2cnc3cc(Cl)ccc3n2)cc1` (stereo not shown) [NZ-534, 2-{4-[(6-chloroquinoxalin-2-yl)oxy]phenyl}-N-(2,3-dihydroxypropyl)propanamide], the “concentrations at which not toxic, S. cerevisiae cytotoxicity testing” value (S. cerevisiae) was no less than 100 µM and the “concentrations at which not toxic, human fibroblast cytotoxicity testing” value (human fibroblast) was no less than 100 µM.

In the case of `CC(C(=O)NCCN(C)C)c1ccc(Oc2cnc3cc(Cl)ccc3n2)cc1` (stereo not shown) [NZ-535], the MIC50 [1, 2] is reported as 0.225 to 0.45 µM (≈ 0.0898 to 0.18 µg/mL).

Compound `COCC(COC)NC(=O)C(C)c1ccc(Oc2nc3ccc(Cl)cc3s2)cc1` (stereo not shown) [NZ-542, 2-{4-[(6-chloro-1,3-benzothiazol-2-yl)oxy]phenyl}-N-(1,3-dimethoxypropan-2-yl)propanamide] has an MIC50 [1, 2] of 0.112 µM (≈ 0.0487 µg/mL).

`CC(C(=O)N(C)CCN(C)C)c1ccc(Oc2nc3ccc(Cl)cc3s2)cc1` (stereo not shown) [NZ-547, 2-{4-[(6-chloro-1,3-benzothiazol-2-yl)oxy]phenyl}-N-[2-(dimethylamino)ethyl]-N-methylpropanamide] was tested, and the MIC50 [1, 2] was less than 0.056 µM and the inhibition at 0.056 µM ([1]; Cryptosporidium parvum) was 96%.

`CNCCNC(=O)C(C)c1ccc(Oc2nc3ccc(Cl)cc3s2)cc1` (stereo not shown) [NZ-548, 2-{4-[(6-chloro-1,3-benzothiazol-2-yl)oxy]phenyl}-N-[2-(methylamino)ethyl]propanamide] was tested, and the MIC50 [1, 2] was 0.112 to 0.225 µM (≈ 0.0437 to 0.0877 µg/mL) and the inhibition at 0.112 µM ([1]; Cryptosporidium parvum, HCT-8, @0.112 uM) was 45%.

For `CC(C(=O)N1CCOC(C(N)=O)C1)c1ccc(Oc2nc3ccc(Cl)cc3s2)cc1` (stereo not shown) [NZ-554, 4-(2-{4-[(6-chloro-1,3-benzothiazol-2-yl)oxy]phenyl}propanoyl)morpholine-2-carboxamide], the MIC50 [1, 2] was 0.056 to 0.112 µM (≈ 0.025 to 0.0499 µg/mL).

With `CC(C(=O)N1CCOCC1CO)c1ccc(Oc2nc3ccc(Cl)cc3s2)cc1` (stereo not shown) [NZ-555, 2-{4-[(6-chloro-1,3-benzothiazol-2-yl)oxy]phenyl}-1-[3-(hydroxymethyl)morpholin-4-yl]propan-1-one] the MIC50 [1, 2] was less than 0.056 µM and the inhibition at 0.056 µM ([1]; Cryptosporidium parvum) was 79%.

For `CC(C(=O)NCCN(C)CCO)c1ccc(Oc2nc3ccc(Cl)cc3s2)cc1` (stereo not shown) [NZ-556, 2-{4-[(6-chloro-1,3-benzothiazol-2-yl)oxy]phenyl}-N-{2-[(2-hydroxyethyl)(methyl)amino]ethyl}propanamide], the MIC50 [1, 2] was roughly 0.056 µM (≈ 0.0243 µg/mL) and the inhibition at 0.056 µM ([1]; Cryptosporidium parvum) was 64%.

`CC(C(=O)NCCN(CCO)CCO)c1ccc(Oc2nc3ccc(Cl)cc3s2)cc1` (stereo not shown) [NZ-557, N-{2-[bis(2-hydroxyethyl)amino]ethyl}-2-{4-[(6-chloro-1,3-benzothiazol-2-yl)oxy]phenyl}propanamide] was tested, and the MIC50 [1, 2] was 0.112 to 0.225 µM (≈ 0.052 to 0.104 µg/mL).

With `CC(C(=O)N1CCOC(CO)C1)c1ccc(Oc2nc3ccc(Cl)cc3s2)cc1` (stereo not shown) [NZ-558, 2-{4-[(6-chloro-1,3-benzothiazol-2-yl)oxy]phenyl}-1-[2-(hydroxymethyl)morpholin-4-yl]propan-1-one] the MIC50 [1, 2] was roughly 0.056 µM (≈ 0.0242 µg/mL).

`O=C(N1CCOCC1)C1(c2ccc(Oc3nc4ccc(Cl)cc4s3)cc2)CC1` [NZ-561, 6-chloro-2-{4-[1-(morpholine-4-carbonyl)cyclopropyl]phenoxy}-1,3-benzothiazole] showed an MIC50 [1, 2] of 0.04 µM (≈ 0.0166 µg/mL).

For `CC(C(=O)NC1CNC(=O)C1)c1ccc(Oc2nc3ccc(Cl)cc3s2)cc1` (stereo not shown) [NZ-562, 2-{4-[(6-chloro-1,3-benzothiazol-2-yl)oxy]phenyl}-N-(5-oxopyrrolidin-3-yl)propanamide], the MIC50 [1, 2] was roughly 0.45 µM (≈ 0.187 µg/mL).

Work on `O=C(N1CCS(=O)(=O)CC1)C1(c2ccc(Oc3nc4ccc(Cl)cc4s3)cc2)CC1` [NZ-563, 4-(1-{4-[(6-chloro-1,3-benzothiazol-2-yl)oxy]phenyl}cyclopropanecarbonyl)-1λ^6,4-thiomorpholine-1,1-dione] yielded an MIC50 [1, 2] of 0.018 µM (≈ 0.00833 µg/mL).
